Measured values published in patent US8415469B2, “Compounds and methods for kinase modulation, and indications therefor” (Plexxikon Inc., priority 2005, dated 2013).
pIC50: −log10 of the molar value.

Experiments:
Type in all cases: biochemical
Ret = molecular target: T1, Ret (Homo sapiens, UniProt P07949); assay: AlphaScreen kinase assay, Ret; conditions: read-out: IC50, activity toward kinase Ret
T1 construct: P1378.pET-SF BI-PTP RET H661-R1012 HIS; made in house
T1 sequence (P07949 with tags, fused parts or gaps): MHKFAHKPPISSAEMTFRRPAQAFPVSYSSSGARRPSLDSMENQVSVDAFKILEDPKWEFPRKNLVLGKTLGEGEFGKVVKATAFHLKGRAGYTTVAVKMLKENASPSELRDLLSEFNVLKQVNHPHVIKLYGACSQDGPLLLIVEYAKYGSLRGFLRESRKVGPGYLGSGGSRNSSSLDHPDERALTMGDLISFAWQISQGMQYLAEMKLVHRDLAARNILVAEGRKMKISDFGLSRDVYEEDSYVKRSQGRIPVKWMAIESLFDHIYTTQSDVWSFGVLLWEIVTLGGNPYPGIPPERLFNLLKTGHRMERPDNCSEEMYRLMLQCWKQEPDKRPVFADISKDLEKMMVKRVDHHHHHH

MAP2K1 = molecular target: T2, MAP2K1 (Homo sapiens, UniProt Q02750); assay: Z'-Lyte FRET kinase assay (Invitrogen), MAP2K1; conditions: read-out: IC50, activity toward kinase MAP2K1
T2 construct: purchased Invitrogen (assay run by Invitrogen)
T2 sequence (Q02750 whole entry): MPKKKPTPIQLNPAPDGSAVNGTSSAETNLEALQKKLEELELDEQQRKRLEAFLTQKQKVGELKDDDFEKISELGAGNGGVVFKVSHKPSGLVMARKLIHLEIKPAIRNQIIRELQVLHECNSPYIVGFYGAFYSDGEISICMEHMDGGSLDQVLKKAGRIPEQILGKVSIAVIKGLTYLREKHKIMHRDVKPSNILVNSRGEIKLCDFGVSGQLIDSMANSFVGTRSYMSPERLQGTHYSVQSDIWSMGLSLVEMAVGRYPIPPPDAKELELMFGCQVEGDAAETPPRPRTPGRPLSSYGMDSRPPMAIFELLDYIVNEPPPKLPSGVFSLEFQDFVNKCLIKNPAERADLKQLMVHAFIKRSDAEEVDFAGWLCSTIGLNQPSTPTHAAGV
Text: For example, direct radiometric, indirect FRET or AlphaScreen assays may be used to assess the level of phosphorylation of a substrate in the presence of test compounds in order to determine the inhibitory affect of the compound on the kinase. […] For these assays, compounds of the invention were screened by Invitrogen using Z′-Lyte™ kinase assay.
Briefly, the Invitrogen kinase assay involves use of a specific peptide substrate optimized for each kinase, containing a fluorophore at each end that make up the FRET pair. The peptide sensitivity to proteolytic cleavage depends on phosphorylation of the peptide. Non-phosphorylated peptide is cleaved by a protease while peptide phosphorylated by the kinase is not cleaved. Cleavage of the peptide disrupts the FRET between the donor (coumarin) and acceptor (fluorescein) fluorophores, resulting in an increase in the ratio of donor emission to acceptor emission. The emission ratio of coumarin to fluorescein is used to assess the reaction progress. […] Thus, the assay involves a kinase reaction in the presence of varying concentrations of a given compound, a development reaction with site specific protease, and detection of the fluorescent emission ratio of coumarin and fluorscein. […] Reaction conditions for each kinase are determined to provide optimal reaction times, incubation temperature, kinase and ATP concentrations. Test samples are made up in 1× kinase buffer (50 mM HEPES pH 7.5, 50 mM MgCl2, 5 mM EGTA, 0.05% BRIJ-35) and compound at desired concentration prepared in DMSO such that the final DMSO is 1%. […] All kinase except for MAP2K1 were at 10 μM ATP in the kinase reaction, while MAP2K1 was at 100 μM. Samples are mixed and the kinase reaction is incubated 1 hour at room temperature, after which 5 μl of development solution is added and mixed. After incubation for another 1 hour at room temperature, 5 μl of stop reagent is added to each sample and mixed. The fluorescence signals are measured to determine the emission ratio.

Stk6 = molecular target: T3, Stk6 (Homo sapiens, UniProt O14965); assay: Z'-Lyte FRET kinase assay (Invitrogen), Stk6; conditions: read-out: IC50, activity toward kinase Stk6
T3 construct: purchased Invitrogen (Carlsbad, Calif.), screening service
T3 sequence (O14965 1-403): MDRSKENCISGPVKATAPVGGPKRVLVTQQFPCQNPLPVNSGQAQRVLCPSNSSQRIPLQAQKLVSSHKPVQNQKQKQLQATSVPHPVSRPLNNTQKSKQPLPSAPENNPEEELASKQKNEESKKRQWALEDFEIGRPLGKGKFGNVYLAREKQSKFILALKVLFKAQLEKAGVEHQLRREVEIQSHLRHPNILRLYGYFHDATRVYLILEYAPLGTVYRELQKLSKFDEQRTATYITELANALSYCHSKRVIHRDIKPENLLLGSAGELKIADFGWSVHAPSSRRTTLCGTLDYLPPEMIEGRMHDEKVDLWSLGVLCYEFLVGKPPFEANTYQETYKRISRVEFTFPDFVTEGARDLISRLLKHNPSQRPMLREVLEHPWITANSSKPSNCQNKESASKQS

Btk = molecular target: T4, Btk (Homo sapiens, UniProt Q06187); assay: Z'-Lyte FRET kinase assay (Invitrogen), Btk; conditions: read-out: IC50, activity toward kinase Btk
T4 construct: purchased Invitrogen (assay run by Invitrogen)
T4 sequence (Q06187 whole entry): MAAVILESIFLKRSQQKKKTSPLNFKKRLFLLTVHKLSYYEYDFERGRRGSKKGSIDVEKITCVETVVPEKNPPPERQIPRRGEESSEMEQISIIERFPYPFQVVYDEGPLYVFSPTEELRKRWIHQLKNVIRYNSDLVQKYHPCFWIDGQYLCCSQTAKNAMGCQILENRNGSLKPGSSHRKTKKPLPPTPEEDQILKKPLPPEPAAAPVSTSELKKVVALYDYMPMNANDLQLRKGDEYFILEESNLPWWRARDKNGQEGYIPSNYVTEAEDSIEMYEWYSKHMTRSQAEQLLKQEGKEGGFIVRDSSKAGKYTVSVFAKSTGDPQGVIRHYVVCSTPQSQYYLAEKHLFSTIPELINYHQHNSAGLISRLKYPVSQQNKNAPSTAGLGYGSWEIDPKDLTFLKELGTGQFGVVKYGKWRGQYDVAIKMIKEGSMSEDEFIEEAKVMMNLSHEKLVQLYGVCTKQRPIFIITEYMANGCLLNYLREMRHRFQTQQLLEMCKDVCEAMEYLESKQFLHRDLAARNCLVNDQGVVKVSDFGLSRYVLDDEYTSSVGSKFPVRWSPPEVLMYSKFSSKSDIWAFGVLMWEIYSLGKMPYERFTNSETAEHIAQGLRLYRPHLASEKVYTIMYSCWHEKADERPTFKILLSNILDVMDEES

Kdr = molecular target: T5, Kdr (Homo sapiens, UniProt P35968); assay: Z'-Lyte FRET kinase assay (Invitrogen), Kdr; conditions: read-out: IC50, activity toward kinase Kdr
T5 construct: purchased Invitrogen (assay run by Invitrogen)
T5 sequence (P35968 20-1356): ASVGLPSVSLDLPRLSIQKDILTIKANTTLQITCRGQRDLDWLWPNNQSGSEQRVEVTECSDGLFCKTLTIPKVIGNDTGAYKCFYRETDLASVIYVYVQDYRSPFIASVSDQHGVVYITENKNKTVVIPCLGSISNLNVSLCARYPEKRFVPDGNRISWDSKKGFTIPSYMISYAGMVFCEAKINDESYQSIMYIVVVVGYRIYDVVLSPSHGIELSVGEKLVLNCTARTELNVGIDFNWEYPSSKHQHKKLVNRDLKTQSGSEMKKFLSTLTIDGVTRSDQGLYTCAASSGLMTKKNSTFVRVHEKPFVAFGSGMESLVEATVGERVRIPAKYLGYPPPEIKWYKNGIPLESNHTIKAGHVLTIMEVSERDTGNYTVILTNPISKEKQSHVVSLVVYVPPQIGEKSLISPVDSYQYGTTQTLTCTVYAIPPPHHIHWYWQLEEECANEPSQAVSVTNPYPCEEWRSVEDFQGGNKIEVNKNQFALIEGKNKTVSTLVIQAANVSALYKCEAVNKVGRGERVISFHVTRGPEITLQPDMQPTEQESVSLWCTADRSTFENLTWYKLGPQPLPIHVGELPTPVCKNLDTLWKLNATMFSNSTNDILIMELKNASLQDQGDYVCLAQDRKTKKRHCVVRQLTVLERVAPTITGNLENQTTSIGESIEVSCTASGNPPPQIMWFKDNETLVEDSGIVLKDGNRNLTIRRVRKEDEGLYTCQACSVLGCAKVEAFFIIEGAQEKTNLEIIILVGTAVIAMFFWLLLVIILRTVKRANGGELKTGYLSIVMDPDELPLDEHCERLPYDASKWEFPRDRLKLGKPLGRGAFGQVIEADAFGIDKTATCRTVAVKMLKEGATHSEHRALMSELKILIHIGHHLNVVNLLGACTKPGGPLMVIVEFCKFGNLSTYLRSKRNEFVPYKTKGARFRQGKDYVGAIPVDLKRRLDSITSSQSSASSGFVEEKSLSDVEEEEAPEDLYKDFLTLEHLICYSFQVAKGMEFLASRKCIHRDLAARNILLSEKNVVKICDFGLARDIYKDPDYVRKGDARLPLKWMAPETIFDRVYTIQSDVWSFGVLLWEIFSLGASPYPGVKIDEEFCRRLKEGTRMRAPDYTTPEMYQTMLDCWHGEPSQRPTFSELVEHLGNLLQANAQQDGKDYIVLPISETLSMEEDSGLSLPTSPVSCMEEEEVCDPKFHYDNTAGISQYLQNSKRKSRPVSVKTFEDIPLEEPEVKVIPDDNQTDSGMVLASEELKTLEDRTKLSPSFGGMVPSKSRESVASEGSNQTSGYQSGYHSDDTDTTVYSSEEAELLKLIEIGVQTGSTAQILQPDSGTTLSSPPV

Jak3 = molecular target: T6, Jak3 (Homo sapiens, UniProt P52333); assay: AlphaScreen kinase assay, Jak3; conditions: read-out: IC50, activity toward kinase Jak3
T6 sequence (P52333 1-1124): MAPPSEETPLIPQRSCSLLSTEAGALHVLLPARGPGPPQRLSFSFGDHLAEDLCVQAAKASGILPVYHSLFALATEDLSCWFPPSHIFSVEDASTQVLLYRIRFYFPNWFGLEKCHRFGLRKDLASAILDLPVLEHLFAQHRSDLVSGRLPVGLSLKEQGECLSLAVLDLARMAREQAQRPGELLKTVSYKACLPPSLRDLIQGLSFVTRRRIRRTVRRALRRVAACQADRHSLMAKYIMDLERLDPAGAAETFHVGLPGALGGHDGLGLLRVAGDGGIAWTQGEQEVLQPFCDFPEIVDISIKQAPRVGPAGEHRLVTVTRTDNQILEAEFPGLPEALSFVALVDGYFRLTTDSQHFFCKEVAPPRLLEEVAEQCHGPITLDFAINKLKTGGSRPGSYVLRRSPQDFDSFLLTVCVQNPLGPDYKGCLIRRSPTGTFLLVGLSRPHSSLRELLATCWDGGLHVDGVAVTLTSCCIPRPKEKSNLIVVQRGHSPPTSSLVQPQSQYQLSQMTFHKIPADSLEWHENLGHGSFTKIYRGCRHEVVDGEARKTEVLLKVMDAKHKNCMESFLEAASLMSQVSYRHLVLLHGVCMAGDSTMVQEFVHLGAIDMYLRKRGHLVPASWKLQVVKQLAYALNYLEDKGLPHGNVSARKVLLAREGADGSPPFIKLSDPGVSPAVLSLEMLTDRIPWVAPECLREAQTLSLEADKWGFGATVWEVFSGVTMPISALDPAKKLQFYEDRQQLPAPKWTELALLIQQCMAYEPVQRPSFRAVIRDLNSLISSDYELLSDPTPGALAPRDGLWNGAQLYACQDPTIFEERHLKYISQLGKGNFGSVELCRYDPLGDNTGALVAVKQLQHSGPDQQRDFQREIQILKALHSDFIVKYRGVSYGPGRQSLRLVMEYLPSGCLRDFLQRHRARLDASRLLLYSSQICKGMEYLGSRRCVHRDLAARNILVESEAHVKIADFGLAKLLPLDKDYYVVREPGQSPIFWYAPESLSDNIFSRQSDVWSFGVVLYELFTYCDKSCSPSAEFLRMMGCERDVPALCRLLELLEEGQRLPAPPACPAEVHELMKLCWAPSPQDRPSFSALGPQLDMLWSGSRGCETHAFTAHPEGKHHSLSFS
Text: AlphaScreen assay was used to screen additional kinases. The assay is similarly dependent on the phosphorylation of a peptide substrate. In this assay, an antibody that recognizes phosphorylated substrate is bound to an acceptor bead. The peptide substrate is attached to biotin, which binds to a donor head that contains streptavidin. Thus phosphorylated substrate is bound by antibody and streptavidin, bringing the donor and acceptor heads into close proximity when kinase is not inhibited. The donor produces singlet oxygen which results in emission from the acceptor when they are in close proximity. Conversely, when kinase is inhibited, the donor and acceptor beads are not associated and the emission from the acceptor is reduced.
AlphaScreen assays were done using compounds dissolved in DMSO to a concentration of 20 mM. The compounds were diluted accordingly to the desired final concentrations in each sample well, using 1:3 serial dilution for a total of 8 concentration points.

B-Raf V600E = molecular target: T7, B-Raf V600E (Homo sapiens, UniProt P15056, V600E); assay: AlphaScreen kinase assay, B-Raf V600E; conditions: read-out: IC50, activity toward kinase B-Raf V600E
T7 construct: P4254. pFastBacBD-CDC37 BRAF D437-K722-X, V600E; His6 with pFastBac HT leader (TEV site) (N); made in house; host or cells: Sf9 (baculovirus; chaperone CDC37 co-expressed)
T7 sequence (P15056 with tags, fused parts or gaps V600E): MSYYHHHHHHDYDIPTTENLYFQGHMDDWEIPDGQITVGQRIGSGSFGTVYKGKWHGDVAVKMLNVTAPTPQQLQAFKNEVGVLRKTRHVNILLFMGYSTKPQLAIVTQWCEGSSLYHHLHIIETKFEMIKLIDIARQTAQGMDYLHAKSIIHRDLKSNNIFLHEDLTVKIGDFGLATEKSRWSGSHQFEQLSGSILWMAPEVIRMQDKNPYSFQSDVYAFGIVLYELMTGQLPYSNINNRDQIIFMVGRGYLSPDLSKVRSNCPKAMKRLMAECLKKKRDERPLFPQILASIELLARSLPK

Yes = molecular target: T8, Yes (Homo sapiens, UniProt P07947); assay: Z'-Lyte FRET kinase assay (Invitrogen), Yes; conditions: read-out: IC50, activity toward kinase Yes
T8 construct: purchased Invitrogen (Carlsbad, Calif.), screening service
Outline: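 Serially diluted compound (final 1% DMSO) incubated 1 h at room temperature with kinase, 2 μM FRET peptide and 10 μM ATP in pH 7.5 HEPES buffer. Site-specific protease then cleaves unphosphorylated peptide (1 h); inhibition read as increased coumarin-to-fluorescein emission ratio.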

Flt4 = molecular target: T9, Flt4 (Homo sapiens, UniProt P35916); assay: AlphaScreen kinase assay, Flt4; conditions: read-out: IC50, activity toward kinase Flt4
T9 construct: purchased ProQinase GmbH (Freiburg, Germany)
Outline: (§1)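 AlphaScreen read-out: acceptor-bead emission falls when kinase is inhibited. Biotin-peptide substrate captured on streptavidin donor beads, phospho-specific antibody on acceptor beads. 8 concentrations, 1:3 dilution series, from 20 mM DMSO stocks.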

FGFR1 = molecular target: T10, FGFR1 (Homo sapiens, UniProt P11362, C488A/C584S); assay: AlphaScreen kinase assay, FGFR1; conditions: read-out: IC50, activity toward kinase FGFR
T10 construct: P1351.pET N6 BI-PTP FGFR A458-E765-X C488A, C584S; made in house; host or cells: E. coli (PTP1B co-expressed)
T10 sequence (P11362 458-765 C488A/C584S): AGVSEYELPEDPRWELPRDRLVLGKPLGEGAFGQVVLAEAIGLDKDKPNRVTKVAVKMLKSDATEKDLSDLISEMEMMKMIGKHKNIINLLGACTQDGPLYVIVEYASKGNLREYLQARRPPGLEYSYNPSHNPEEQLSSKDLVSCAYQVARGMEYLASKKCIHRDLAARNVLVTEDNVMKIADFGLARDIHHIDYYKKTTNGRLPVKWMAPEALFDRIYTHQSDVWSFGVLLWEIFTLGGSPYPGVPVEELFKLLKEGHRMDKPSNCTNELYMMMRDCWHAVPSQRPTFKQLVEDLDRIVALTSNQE

PKC theta = molecular target: T11, PKC theta (Homo sapiens, UniProt Q04759); assay: Z'-Lyte FRET kinase assay (Invitrogen), PKC theta; conditions: read-out: IC50, activity toward kinase PKC theta
T11 construct: purchased Invitrogen (Carlsbad, Calif.), screening service
T11 sequence (Q04759 whole entry): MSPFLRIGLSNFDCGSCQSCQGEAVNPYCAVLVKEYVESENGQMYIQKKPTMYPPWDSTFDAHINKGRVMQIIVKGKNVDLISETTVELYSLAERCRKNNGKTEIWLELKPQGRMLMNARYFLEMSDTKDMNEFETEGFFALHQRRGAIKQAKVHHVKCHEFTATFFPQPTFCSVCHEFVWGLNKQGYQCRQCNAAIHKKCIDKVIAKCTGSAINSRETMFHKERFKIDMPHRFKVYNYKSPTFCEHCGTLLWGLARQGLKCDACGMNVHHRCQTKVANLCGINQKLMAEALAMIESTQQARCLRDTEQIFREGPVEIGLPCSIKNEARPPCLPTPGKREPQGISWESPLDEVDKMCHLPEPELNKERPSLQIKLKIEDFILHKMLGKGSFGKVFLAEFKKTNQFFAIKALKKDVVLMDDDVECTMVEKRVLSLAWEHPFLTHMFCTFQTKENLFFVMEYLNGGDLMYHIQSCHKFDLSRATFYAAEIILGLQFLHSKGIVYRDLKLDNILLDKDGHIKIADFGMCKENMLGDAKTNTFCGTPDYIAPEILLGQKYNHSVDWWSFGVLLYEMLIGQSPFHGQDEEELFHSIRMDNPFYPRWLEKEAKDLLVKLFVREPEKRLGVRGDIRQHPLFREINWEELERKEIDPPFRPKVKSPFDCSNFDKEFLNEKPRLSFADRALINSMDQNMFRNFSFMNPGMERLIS
Text: The effect of potential modulators of kinase activity can be measured in a variety of different assays known in the art. For example, direct radiometric, indirect FRET or AlphaScreen assays may be used to assess the level of phosphorylation of a substrate in the presence of test compounds in order to determine the inhibitory affect of the compound on the kinase. Invitrogen (Carlsbad, Calif.) uses a FRET based assay for Btk, EGFR, EphB2, Flt3, lrak4, Kdr, MAP2K1, MAPKAPK2, PDGFRB, PKC theta, Stk6 and Yes. For these assays, compounds of the invention were screened by Invitrogen using Z′-Lyte™ kinase assay.
Briefly, the Invitrogen kinase assay involves use of a specific peptide substrate optimized for each kinase, containing a fluorophore at each end that make up the FRET pair. The peptide sensitivity to proteolytic cleavage depends on phosphorylation of the peptide. Non-phosphorylated peptide is cleaved by a protease while peptide phosphorylated by the kinase is not cleaved. Cleavage of the peptide disrupts the FRET between the donor (coumarin) and acceptor (fluorescein) fluorophores, resulting in an increase in the ratio of donor emission to acceptor emission. The emission ratio of coumarin to fluorescein is used to assess the reaction progress. The extent of phosphorylation is determined from the emission ratio, which is low when the kinase is active (phosphorylated peptide is not cleaved, FRET pair connected) or higher for inhibited kinase (non-phosphorylated peptide is cleaved, FRET pair separated). Thus, the assay involves a kinase reaction in the presence of varying concentrations of a given compound, a development reaction with site specific protease, and detection of the fluorescent emission ratio of coumarin and fluorscein. […] Reaction conditions for each kinase are determined to provide optimal reaction times, incubation temperature, kinase and ATP concentrations. Test samples are made up in 1× kinase buffer (50 mM HEPES pH 7.5, 50 mM MgCl2, 5 mM EGTA, 0.05% BRIJ-35) and compound at desired concentration prepared in DMSO such that the final DMSO is 1%. […] Typically, assay plates are prepared to 10 μl final volume per sample, adding 2.5 μl of compound at 4× the desired concentration in 4% DMSO (serial dilution of compound provides concentration curve), 5 μl of the desired kinase mixed with Z′-LYTE™ peptide substrate (2× in 2× kinase buffer, final peptide at 2 μM), and 2.5 μl of 4×ATP solution. All kinase except for MAP2K1 were at 10 μM ATP in the kinase reaction, while MAP2K1 was at 100 μM. Samples are mixed and the kinase reaction is incubated 1 hour at room temperature, after which 5 μl of development solution is added and mixed. After incubation for another 1 hour at room temperature, 5 μl of stop reagent is added to each sample and mixed. The fluorescence signals are measured to determine the emission ratio.

Jnk2 = molecular target: T12, Jnk2 (Homo sapiens, UniProt P45984); assay: AlphaScreen kinase assay, Jnk2; conditions: read-out: IC50, activity toward kinase Jnk2
T12 construct: purchased Roche Protein Expression Group (Indianapolis, IN)
T12 sequence (P45984 whole entry): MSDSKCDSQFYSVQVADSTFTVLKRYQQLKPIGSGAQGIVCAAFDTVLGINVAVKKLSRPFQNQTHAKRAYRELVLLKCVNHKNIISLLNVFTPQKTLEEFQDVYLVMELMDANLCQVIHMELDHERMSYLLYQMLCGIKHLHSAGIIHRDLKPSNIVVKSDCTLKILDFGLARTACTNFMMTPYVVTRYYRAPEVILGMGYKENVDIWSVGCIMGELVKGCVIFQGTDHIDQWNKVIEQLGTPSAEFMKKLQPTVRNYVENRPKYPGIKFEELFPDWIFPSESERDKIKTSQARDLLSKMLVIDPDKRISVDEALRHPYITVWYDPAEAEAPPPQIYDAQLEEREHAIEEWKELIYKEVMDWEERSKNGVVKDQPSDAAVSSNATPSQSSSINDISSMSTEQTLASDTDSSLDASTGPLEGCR
Outline: as §1

Jnk3 = molecular target: T13, Jnk3 (Homo sapiens, UniProt P53779); assay: AlphaScreen kinase assay, Jnk3; conditions: read-out: IC50, activity toward kinase Jnk3
T13 construct: purchased Upstate Biotechnology
T13 sequence (P53779 whole entry): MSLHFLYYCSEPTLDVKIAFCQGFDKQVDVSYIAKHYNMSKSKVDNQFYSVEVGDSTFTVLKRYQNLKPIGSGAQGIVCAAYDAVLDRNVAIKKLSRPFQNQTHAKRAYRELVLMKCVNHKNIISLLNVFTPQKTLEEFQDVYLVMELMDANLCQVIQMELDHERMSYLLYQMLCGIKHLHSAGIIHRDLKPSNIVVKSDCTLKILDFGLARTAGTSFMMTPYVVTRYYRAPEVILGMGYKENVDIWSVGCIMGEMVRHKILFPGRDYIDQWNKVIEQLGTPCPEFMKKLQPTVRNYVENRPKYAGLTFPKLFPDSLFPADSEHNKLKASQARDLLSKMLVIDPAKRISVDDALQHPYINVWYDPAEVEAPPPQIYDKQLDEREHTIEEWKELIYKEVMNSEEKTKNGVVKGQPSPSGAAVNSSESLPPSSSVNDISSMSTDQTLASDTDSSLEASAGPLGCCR

Pyk2 = molecular target: T14, Pyk2 (Homo sapiens, UniProt Q14289); assay: AlphaScreen kinase assay, Pyk2; conditions: read-out: IC50, activity toward kinase Pyk2
T14 construct: purchased Upstate Biotechnology

Measured: pIC50

O=C(c1ccccc1F)c1c[nH]c2nccc(-c3cccnc3)c12 [Compound P-0061]
≥ 5.00: Ret | MAP2K1 | Stk6 | Btk | Kdr | Jak3

O=C(O)/C=C/c1cccc(-c2ccnc3[nH]cc(C(=O)c4ccccc4F)c23)c1 [Compound P-0108]
≥ 5.00: Ret | MAP2K1 | Btk | Kdr | B-Raf V600E | Jak3

CS(=O)(=O)c1cccc(-c2ccnc3[nH]cc(C(=O)c4ccccc4F)c23)c1 [Compound P-0138]
≥ 5.00: Ret | Btk | Jak3 | Yes

O=C(c1cc(F)ccc1F)c1c[nH]c2nccc(-c3cc(F)cc(F)c3)c12 [Compound P-0215]
≥ 5.00: Ret | Flt4 | FGFR1 | B-Raf V600E | Jak3

COc1ccc(-c2c[nH]c3ncccc23)cc1OC [Compound P-0238]
≥ 5.00: PKC theta | Jnk2 | Jnk3

CC(C)(C)OC(=O)Nc1ccc(F)c(C(O)c2c[nH]c3ncc(Br)cc23)c1F (stereo not drawn) [Compound P-0318, {3-[(5-Bromo-1H-pyrrolo[2,3-b]pyridin-3-yl)-hydroxy-methyl]-2,4-difluoro-phenyl}-carbamic acid tert-butyl ester]
≥ 5.00: Pyk2 | B-Raf V600E | Jak3
